In US6806359B1, “Hormone receptor compositions and methods” (The Salk Institute for Biological Studies, priority 1986, dated 2004):
“Also recorded” adds a separate entry of the source.

Columns and labels:
[1] = molecular target: T1, rTR alpha (Rattus norvegicus, UniProt P63059); assay: ^125I-T3 binding to in vitro translated rTR alpha (Scatchard and competition); settings: for competition for T3 binding to rTR alpha by excess compound: excess competitor
T1 construct: made in house; host or cells: rabbit reticulocyte lysate (SP6 transcripts of rbeA12B)
T1 sequence (P63059 1-410 isoform P63059-2): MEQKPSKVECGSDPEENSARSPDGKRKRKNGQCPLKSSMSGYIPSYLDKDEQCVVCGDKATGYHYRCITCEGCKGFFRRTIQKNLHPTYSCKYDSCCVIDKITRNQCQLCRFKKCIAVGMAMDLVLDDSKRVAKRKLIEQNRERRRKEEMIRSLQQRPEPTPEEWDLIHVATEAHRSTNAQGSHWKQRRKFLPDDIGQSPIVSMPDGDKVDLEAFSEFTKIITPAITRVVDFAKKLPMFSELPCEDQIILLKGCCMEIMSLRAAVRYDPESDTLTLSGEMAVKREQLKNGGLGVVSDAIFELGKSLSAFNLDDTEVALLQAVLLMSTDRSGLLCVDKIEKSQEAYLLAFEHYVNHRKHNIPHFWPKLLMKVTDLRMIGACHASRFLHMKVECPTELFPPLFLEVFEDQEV
Excerpt: In vitro translation and thyroid hormone binding of rTR alpha FIG. 69 rTR alpha was transcribed in vitro and translated in a rabbit reticulocyte lysate. […] Lane 1, no added RNA; lane 2, rbeA12, which contains the entire 5′ untranslated region; lane 3, rbeA12B, which contains only 97 bp of 5′ untranslated sequence. […] Samples from rbeA12B programmed lysates were mixed with increasing concentrations of unlabeled thyroid hormone or analogs to compete with labeled hormone. […] In vitro transcription and translation and hormone binding were performed as described (22, 23).
23. For in vitro transcription, the entire EcoRI insert of rbeA12 was cloned into pGEM1 (Promega Biotec). […] For thyroid hormone binding, transcriptions were performed with SP6 polymerase and 5 to 10 micrograms of rbeA12B linearized with SstI. […] Thyroid hormone binding for both the Scatchard and competition analyses were determined in the same manner, except that unlabeled protein was used for the Scatchard analysis. […] Specific hormone binding was determined by adding a 1000-fold excess of unlabeled hormone and assayed by counting radioactivity eluting in the excluded volume from a Sephadex G-25 fine (Pharmacia) 0.9-by 4.0-cm. column.

[2] = molecular target: T2, hMR (Homo sapiens, UniProt P08235); assay: [^3H]aldosterone binding and steroid competition in extracts of pRShMR-transfected COS cells; set-up: expressed in transfected cells; host or cells: COS cells transfected with pRShMR (DEAE-dextran); settings: 1-, 10-, or 100-fold molar excess of unlabeled steroid
T2 sequence (P08235 1-984): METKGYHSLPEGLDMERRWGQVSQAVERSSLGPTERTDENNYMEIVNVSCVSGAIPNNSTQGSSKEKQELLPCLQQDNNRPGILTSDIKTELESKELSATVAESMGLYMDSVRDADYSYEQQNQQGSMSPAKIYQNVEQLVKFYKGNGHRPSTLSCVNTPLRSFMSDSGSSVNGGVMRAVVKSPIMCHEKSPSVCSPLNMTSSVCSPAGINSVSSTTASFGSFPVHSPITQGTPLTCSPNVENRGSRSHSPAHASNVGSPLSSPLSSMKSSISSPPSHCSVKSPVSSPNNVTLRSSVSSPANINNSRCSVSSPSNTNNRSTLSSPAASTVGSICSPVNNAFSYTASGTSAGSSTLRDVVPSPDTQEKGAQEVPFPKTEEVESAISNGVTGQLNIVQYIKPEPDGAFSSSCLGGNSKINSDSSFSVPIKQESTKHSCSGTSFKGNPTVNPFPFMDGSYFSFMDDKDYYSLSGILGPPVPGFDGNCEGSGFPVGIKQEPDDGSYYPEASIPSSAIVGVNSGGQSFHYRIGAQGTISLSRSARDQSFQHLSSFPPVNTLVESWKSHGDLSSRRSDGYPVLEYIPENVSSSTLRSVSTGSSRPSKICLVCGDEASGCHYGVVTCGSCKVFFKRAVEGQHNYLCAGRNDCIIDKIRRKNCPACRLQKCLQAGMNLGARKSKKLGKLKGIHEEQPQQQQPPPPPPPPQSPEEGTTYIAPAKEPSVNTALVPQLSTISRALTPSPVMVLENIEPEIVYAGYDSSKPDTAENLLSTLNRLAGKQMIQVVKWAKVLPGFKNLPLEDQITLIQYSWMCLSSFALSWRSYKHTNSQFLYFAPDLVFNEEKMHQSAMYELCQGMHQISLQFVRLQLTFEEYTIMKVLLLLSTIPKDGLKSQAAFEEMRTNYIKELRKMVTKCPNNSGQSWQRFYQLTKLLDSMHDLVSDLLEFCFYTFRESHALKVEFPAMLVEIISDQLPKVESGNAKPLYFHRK
Method: Ligand specificity of the hMR protein was determined by preparing cytosol extracts from COS cells transfected with pRShMR. Two days after transfection, cells were harvested, and hormone binding was measured by a dextran-treated charcoal assay. […] This provided a measure of the relative affinity of each of these steroids for hMR.
Steroid-binding properties of expressed hMR. FIG. 38 Structure of pRShMR, the hMR expression plasmid (41). […] Each point was assayed in triplicate with 100 micrograms of extract protein in a 200-microliter incubation at 0° C. for 2.5 hours. […] The results of two independent trials representative of these competition experiments are shown. Cold competitor was present in 1-, 10-, or 100-fold molar excess. […] Subconfluent COS cells were transfected by the DEAE-dextran method (42) with 10 micrograms of pRShMR per dish. Cells were maintained for 2 days in DMEM (Dulbecco's modification of Eagle's minimum essential medium) with 5 percent charcoal-treated fetal calf serum, then harvested in […] tris-HCl. (pH 7.8), 10 nM NaCl, 1 mM EDTA, 10 mM Na2MoO4, 5 mM dithiothreitol, antipain (5 microgram/ml), leupeptin (5 microgram/ml), and 500 microM phenylmethylsulfonyl fluoride. After centrifugation at 15,000×g for 10 minutes, extracts were adjusted to 100 mM NaCl and 5 percent glycerol before binding. […] After centrifugation at 15,000×g for 2 minutes at 40C, tritium in supernatant was quantified by liquid scintillation spectrophotometry.

[3] = molecular target: T3, GR (Homo sapiens, UniProt P04150); assay: hGR functional assay: CAT activity in CV-1 cells cotransfected with pRShGR alpha (or mutant) and pMTVCAT; assay type: cell-based; set-up: The expression vector linking the RSV LTR to full length hGR cDNA (pRShGR alpha) was designed to obtain high levels of expression; expressed in transfected cells; host or cells: CV-1 monkey kidney cells, cotransfected with pMTVCAT; settings: 100 nM steroid, cotransfected CV-1 cells
T3 sequence (P04150 1-777): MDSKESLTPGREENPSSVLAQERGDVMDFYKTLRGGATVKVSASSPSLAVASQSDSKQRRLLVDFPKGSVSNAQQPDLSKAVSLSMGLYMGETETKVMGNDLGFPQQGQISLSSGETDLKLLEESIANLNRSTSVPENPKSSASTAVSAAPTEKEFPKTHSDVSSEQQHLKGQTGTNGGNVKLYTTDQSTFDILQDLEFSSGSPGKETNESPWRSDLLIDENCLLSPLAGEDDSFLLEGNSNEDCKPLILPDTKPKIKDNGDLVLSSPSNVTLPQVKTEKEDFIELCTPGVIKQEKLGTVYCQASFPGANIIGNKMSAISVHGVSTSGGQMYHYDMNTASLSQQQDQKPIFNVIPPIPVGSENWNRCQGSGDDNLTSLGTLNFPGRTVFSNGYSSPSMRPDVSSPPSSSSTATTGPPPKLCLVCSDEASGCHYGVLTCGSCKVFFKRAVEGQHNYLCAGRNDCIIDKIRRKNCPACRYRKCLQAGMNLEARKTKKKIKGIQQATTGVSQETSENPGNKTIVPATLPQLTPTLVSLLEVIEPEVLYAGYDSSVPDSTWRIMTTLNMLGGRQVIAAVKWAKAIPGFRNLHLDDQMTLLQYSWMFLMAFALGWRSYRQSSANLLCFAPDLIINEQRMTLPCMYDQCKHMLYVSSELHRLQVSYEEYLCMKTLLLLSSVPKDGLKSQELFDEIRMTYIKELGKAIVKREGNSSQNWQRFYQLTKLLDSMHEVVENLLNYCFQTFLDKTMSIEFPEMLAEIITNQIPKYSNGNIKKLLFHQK
Excerpt: The assay system and strategy used to study the expression of functional hGR from the cloned cDNA (See Experimental Section I) is shown in FIG. 11. In these experiments, a glucocorticoid-responsive promoter/enhancer element linked to a reporter gene was introduced into a receptor-negative cell. […] For our assay, we chose to use the MTV LTR fused to the sequence coding for chloramphenicol acetyltransferase (CAT) (EC2.3.1.28). […] Cotransfection of pMTVCAT (or pGMCAT) with a receptor expression plasmid provides functional receptors that allow induction of CAT activity upon treatment of the transfected cells with glucocorticoid hormone. In addition, biochemical studies such as steroid binding activity and Western blot analysis of the expressed receptors can be performed simultaneously.
The cells are then cultured in the presence or absence of hormone. CV-1 cells were used to monitor induction of CAT activity, and COS cells were used to measure steroid-binding capacity and the expression of hGR protein.
CAT assays were performed as indicated in Experimental Procedures (See Section II. F.). C, chloramphenicol; AC, 3-acetylchloramphenicol.
The levels of CAT activity were plotted as percentages of the maximal response observe in a particular experiment.
Each plasmid preparation used for transfection was purified using two consecutive CsCl-EtBr equilibrium gradients. […]

| SMILES | competition for T3 binding to rTR alpha by excess compound [1] | relative affinity for hMR by competition with 5 nM [^3H]aldosterone (in words) [2] | also measured |
| --- | --- | --- | --- |
| N[C@@H](Cc1cc(I)c(Oc2cc(I)c(O)c(I)c2)c(I)c1)C(=O)O [L-thyroxine] | – | – | competition for ^125I-T3 binding to rTR alpha (in words) ([1]; in vitro translated rTR alpha): same characteristic affinities |
| C=C1CC[C@H](O)C/C1=C/C=C1\CCC[C@]2(C)[C@@H]([C@H](C)CCCC(C)C)CC[C@@H]12 [vitamin D3] | no competition | – | – |
| CC(=O)S[C@@H]1CC2=CC(=O)CC[C@]2(C)[C@H]2CC[C@@]3(C)[C@@H](CC[C@@]34CCC(=O)O4)[C@H]12 [spironolactone] | – | weaker binding affinity | – |
| C[C@]12C[C@H](O)[C@H]3[C@@H](CCC4=CC(=O)CC[C@@]43C)[C@@H]1CC[C@@H]2C(=O)CO [corticosterone] | – | very similar affinities; also recorded: compete as effectively as aldosterone itself | – |
| C[C@]12CC[C@H]3[C@@H](CCC4=CC(=O)CC[C@@]43C)[C@@H]1CC[C@@H]2C(=O)CO [deoxycorticosterone] | – | very similar affinities; also recorded: compete as effectively as aldosterone itself | – |
| C[C@]12CC[C@H]3[C@@H](CCC4=CC(=O)CC[C@@]43C)[C@@H]1CC[C@@H]2O [testosterone] | no competition | – | induction of CAT activity by steroid [3]: failed to induce CAT activity |
| CC(=O)[C@H]1CC[C@H]2[C@@H]3CCC4=CC(=O)CC[C@]4(C)[C@H]3CC[C@]12C [progesterone] | no competition | – | – |
